Literature values in patent US11530413B2, “Compositions and methods to treat cancer” (NOVARTIS AG, priority 2017, dated 2022).
Like-named read-outs stand apart in the source and are kept apart here.

What was measured:
[1] = target: CDK2; settings: read-out: Ki as CDK inhibitor
[2] = target: T1, CBFB (Homo sapiens, UniProt Q13951); settings: read-out: IC50 as CBFB inhibitor
T1 sequence (Q13951 1-182): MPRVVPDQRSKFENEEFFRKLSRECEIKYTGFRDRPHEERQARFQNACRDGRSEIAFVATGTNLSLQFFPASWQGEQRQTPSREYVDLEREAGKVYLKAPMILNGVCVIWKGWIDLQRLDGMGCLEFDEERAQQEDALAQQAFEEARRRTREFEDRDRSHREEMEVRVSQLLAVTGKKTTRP

[3] = tested on: CDK; settings: read-out: IC50 as multi-CDK inhibitor
[4] = target: T2, CBFbeta association with Runx1 (Homo sapiens, UniProt Q13951)
T2 sequence (Q13951 1-141 limits assumed): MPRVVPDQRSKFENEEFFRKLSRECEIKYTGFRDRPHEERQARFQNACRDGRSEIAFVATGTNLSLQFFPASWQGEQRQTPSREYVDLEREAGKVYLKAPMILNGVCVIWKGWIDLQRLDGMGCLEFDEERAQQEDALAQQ

[5] = tested on: GATA3; settings: target of the IC50 not stated; named as GATA3 inhibitor; read-out: IC50 of the steroid
[6] = target: T3, MITF (Homo sapiens, UniProt O75030); settings: read-out: IC50 as MITF inhibitor
T3 sequence (O75030 1-526): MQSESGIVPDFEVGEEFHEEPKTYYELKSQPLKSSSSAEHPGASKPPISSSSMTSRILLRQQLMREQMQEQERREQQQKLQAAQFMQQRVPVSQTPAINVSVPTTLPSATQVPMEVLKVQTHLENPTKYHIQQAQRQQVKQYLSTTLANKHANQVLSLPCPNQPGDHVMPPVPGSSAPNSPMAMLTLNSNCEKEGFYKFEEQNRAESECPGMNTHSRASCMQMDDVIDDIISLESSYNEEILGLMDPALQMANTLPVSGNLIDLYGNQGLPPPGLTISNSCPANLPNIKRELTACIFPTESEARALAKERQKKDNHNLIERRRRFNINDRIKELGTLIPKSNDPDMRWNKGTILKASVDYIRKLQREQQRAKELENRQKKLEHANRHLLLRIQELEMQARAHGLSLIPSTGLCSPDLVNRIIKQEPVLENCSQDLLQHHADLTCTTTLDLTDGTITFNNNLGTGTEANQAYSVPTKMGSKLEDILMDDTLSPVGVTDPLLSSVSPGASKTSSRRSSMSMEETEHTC

[7] = target: T1, CBFB; settings: read-out: IC50 as CBFB inhibitor; remark: listed apart in the source
[8] = tested on: FLI1; settings: read-out: IC50 as FLI1 inhibitor

CCNCc1cncc(-c2cccc3[nH]nc(-c4nc5c(F)cc(F)cc5[nH]4)c23)c1C [AG-024322, N-((5-(3-(4,6-difluoro-1H-benzo[d]imidazol-2-yl)-1H-indazol-4-yl)-4-methylpyridin-3-yl)methyl)ethanamine]
Ki [1]: 1 to 3 nM

COc1cccnc1-c1nc2cc(OC(F)(F)F)ccc2[nH]1 [AI-10-104]
IC50 [2]: 1250 nM

O=C(NC1CCNCC1)c1n[nH]cc1NC(=O)c1c(Cl)cccc1Cl [AT7519, 4-[(2,6-Dichlorobenzoyl)amino]-N-(4-piperidinyl)-1H-pyrazole-3-carboxamide]
IC50 [3]: 10 to 210 nM

CCc1sc(N)nc1-c1ccc(OC)cc1 [CBFB inhibitor, 5-ethyl-4-(4-methoxyphenyl)-2-thiazolamine]
IC50, binds CBFbeta and prevents its association with Runx1 [4]: 3200 nM

C[C@@H]1C[C@H]2[C@@H]3CCC4=CC(=O)C=C[C@]4(C)[C@@]3(F)[C@@H](O)C[C@]2(C)[C@@]1(O)C(=O)CO [Dexamethasone, (8S,9R,10S,11S,13S,14S,16R,17R)-9-Fluoro-11,17-dihydroxy-17-(2-hydroxyacetyl)-10,13,16-trimethyl-6,7,8,9,10,11,12,13,14,15,16,17-dodecahydro-3H-cyclopenta[a]phenanthren-3-one]
IC50 [5]: 10 nM

CN1CC[C@H](c2c(O)cc(O)c3c(=O)cc(-c4ccccc4Cl)oc23)[C@H](O)C1 [Flavopiridol, 2-(2-chlorophenyl)-5,7-dihydroxy-8-[(3S,4R)-3-hydroxy-1-methyl-4-piperidinyl]-4-chromenone]
IC50 [3]: ~40 nM

NS(=O)(=O)c1ccc(NC2=CC(=O)c3ccccc3C2=O)cc1 [ML329, 4-((1,4-dioxo-1,4-dihydronaphthalen-2-yl)amino)benzenesulfonamide]
IC50 [6]: 1200 nM

O=C1CN=C(c2ccc[nH]2)c2cc(Cl)ccc2N1 [Ro5-3335, 7-Chloro-1,3-dihydro-5-(1H-pyrrol-2-yl)-2H-1,4-benzodiazepin-2-one]
IC50 [7]: 1100 nM

COc1ccc(C(=O)C[C@]2(O)C(=O)Nc3c(Cl)ccc(Cl)c32)cc1 [TK-216, 4,7-dichloro-1,3-dihydro-3-hydroxy-3-[2-(4-methoxyphenyl)-2-oxoethyl]-(3R)-2H-indol-2-one]
IC50 [8]: 449 nM
